# Measurements: patent publication US20110105397A1, “METHOD FOR TREATING HEART FAILURE WITH STRESSCOPIN-LIKE PEPTIDES” (priority 2009, published 2011)
# How the values were obtained:
# [1] = system: isolated rat aortic rings; experiment: Vascular smooth muscle relaxation, isolated rat aortic rings pre-contracted with phenylephrine
# Description: The ability of h-SCP (SEQ ID NO:1) to relax vascular smooth muscle was examined in isolated, rat aortic rings pre-contracted with phenylephrine (PE) (FIG. 8). […] The responses caused by h-SCP (SEQ ID NO:1) were inhibited by anti-sauvagine-30 (SEQ ID NO:118).
# [2] = system: dogs with advanced heart failure; experiment: Hemodynamic, angiographic, echocardiographic profile in anaesthetized dogs with advanced heart failure, IV infusion; type: in vivo, dog
# Method: The effects of h-SCP (SEQ ID NO:1) on cardiovascular function were also assessed in anaesthetized dogs with advanced, irreversible heart failure of ischemic etiology (Sabbah et al., 1991, Am. J. Physiol., vol. 260, pp. H1379-H1384; Sabbah et al., 1994, Circulation, vol. 98, pp. 2852-2859; Chandler et al., 2002, Circ. Res., vol. 91, pp. 278-280). Progressive, advanced heart failure was produced in mongrel dogs by multiple sequential intracoronary microembolization with polystyrene latex microspheres. Dose infusions of 2.2, 4.3, and 7.3 ng/kg/min were administered intravenously over 60 minutes just following or just prior to hemodynamic, angiographic, echocardiographic, and Doppler measurements using conventional hemodynamic, angiographic, echocardiographic, and radiographic methods. The h-SCP polypeptide (SEQ ID NO:1) produced dose- (infusion-) dependent increases in LVEF and SV and decreases in left ventricular end diastolic pressure (LVEDP), left ventricular pressure during isovolumic relaxation (LV-dP/dt), systemic vascular resistance (SVR), and left ventricular end-systolic volume (LVESV) that correlated with plasma concentration. No significant change in heart rate, peak systolic aortic blood pressure, LV+dP/dt, mean pulmonary artery pressure, mean pulmonary artery wedge pressure, right atrial pressure, or myocardial oxygen consumption were recorded following any of the 1 hour intravenous infusions (Table 18 and FIGS. 12 A & B). The improvement in LV systolic and diastolic function was not associated with the development of de novo ventricular arrhythmias.
# In order to determine the threshold effective dose-infusion in dogs with advanced heart failure, a further study was performed at lower dose infusions. In addition, the opportunity was taken to explore whether the increase in LVEF produced by higher dose-infusions of 4.3 ng/kg/min would remain stable over a longer infusion period, i.e. 120 minutes.
# In order to understand the potential cardiovascular effects of neutralizing antibody formation to h-SCP (SEQ ID NO:1), SV30 (SEQ ID No. 118), a competitive antagonist of CRHR2, was administered to dogs (N=4) with advanced heart failure. […] These experiments with SV30 indicate that baseline cardiovascular parameters in dogs with advanced heart failure were not dependent upon endogenous hormone stimulation of CRHR2. Similar findings have been reported in healthy conscious and anaesthetized rats (Gardiner et al., J. Pharmacol. Exp. Ther., 2007, vol 321, pp. 221-226).
# [3] = Table 18, IV infusion 2.2 ng/kg/min, 60 min
# [4] = Table 18, IV infusion 4.3 ng/kg/min, 60 min
# [5] = Table 18, IV infusion 7.3 ng/kg/min, 60 min
# [6] = Table 19, IV infusion 0.22 ng/kg/min, 60 min
# [7] = Table 19, IV infusion 0.43 ng/kg/min, 60 min
# [8] = Table 19, IV infusion 4.3 ng/kg/min, 60 min
# [9] = Table 19, IV infusion 4.3 ng/kg/min, 120 min
# [10] = Table 20, SEQ ID NO: 1 4.3 ng/kg/min + AS-30
substance,measurement,setting,value
"H-TKFTLSLDVPTNIMNLLFNIAKAKNLRAQAAANAHLMAQI-NH2 [SEQ ID NO: 1, TKFTLSLDVPTNIMNLLFNIAKAKNLRAQAAANAHLMAQI-NH2]",fold less potent than h-UCN2,[1],10 fold
same,pA50 of relaxation,[1]; rat aortic rings pre-contracted with phenylephrine,6.05±0.12
same,-ESV,[2]; [3],46 ± 1.7 mL
same,CO,[2]; [3],1.56 ± 0.11 L/min
same,EDV,[2]; [3],66 ± 2.5 mL
same,EF,[2]; [3],"31 ± 0.5^+++,a,b %"
same,HR,[2]; [3],76 ± 2 beats/min
same,LV Efficiency,[2]; [3],23.0 ± 3.1%
same,LV+dP/dt (isovolumic contraction),[2]; [3],1477 ± 104 mmHg/sec
same,LVCBF (total left ventricular coronary blood flow),[2]; [3],52 ± 5 mL/min
same,LVEDP (left ventricular end diastolic pressure),[2]; [3],13 ± 0.9^+ mmHg
same,LV−dP/dt (isovolumic relaxation),[2]; [3],1216 ± 44 mmHg/sec
same,MPAP (mean pulmonary artery pressure),[2]; [3],15 ± 0.5 mmHg
same,MVO2 (myocardial oxygen consumption),[2]; [3],191 ± 14 μmols/min
same,PAWP (mean pulmonary artery wedge pressure),[2]; [3],9.0 ± 0.6 mmHg
same,PSAP,[2]; [3],90 ± 3 mmHg
same,RAP (mean right atrial pressure),[2]; [3],5.7 ± 0.5 mmHg
same,SV,[2]; [3],20 ± 0.9^+ mL
same,SVR (systemic vascular resistance),[2]; [3],4414 ± 193 dynes-sec-cm^−5
same,-ESV,[2]; [4],43 ± 1.7 mL
same,CO,[2]; [4],1.61 ± 0.13 L/min
same,EDV,[2]; [4],65 ± 2.5 mL
same,EF,[2]; [4],"33 ± 0.5^+++,c %"
same,HR,[2]; [4],73 ± 3 beats/min
same,LV Efficiency,[2]; [4],26.0 ± 4.4%
same,LV+dP/dt (isovolumic contraction),[2]; [4],1400 ± 71 mmHg/sec
same,LVCBF (total left ventricular coronary blood flow),[2]; [4],57 ± 6 mL/min
same,LVEDP (left ventricular end diastolic pressure),[2]; [4],13 ± 0.4^+ mmHg
same,LV−dP/dt (isovolumic relaxation),[2]; [4],1094 ± 42^+ mmHg/sec
same,MPAP (mean pulmonary artery pressure),[2]; [4],15 ± 0.5 mmHg
same,MVO2 (myocardial oxygen consumption),[2]; [4],177 ± 19 μmols/min
same,PAWP (mean pulmonary artery wedge pressure),[2]; [4],10 ± 0.6 mmHg
same,PSAP,[2]; [4],87 ± 2 mmHg
same,RAP (mean right atrial pressure),[2]; [4],5.4 ± 0.4 mmHg
same,SV,[2]; [4],22 ± 0.9^++ mL
same,SVR (systemic vascular resistance),[2]; [4],4144 ± 243^+ dynes-sec-cm^−5
same,-ESV,[2]; [5],41 ± 1.8^+ mL
same,CO,[2]; [5],1.67 ± 0.09 L/min
same,EDV,[2]; [5],64 ± 2.4 mL
same,EF,[2]; [5],35 ± 0.9^+++ %
same,HR,[2]; [5],74 ± 2 beats/min
same,LV Efficiency,[2]; [5],23.3 ± 3.2%
same,LV+dP/dt (isovolumic contraction),[2]; [5],1398 ± 74 mmHg/sec
same,LVCBF (total left ventricular coronary blood flow),[2]; [5],59 ± 6 mL/min
same,LVEDP (left ventricular end diastolic pressure),[2]; [5],12 ± 0.6^++ mmHg
same,LV−dP/dt (isovolumic relaxation),[2]; [5],1112 ± 82^+ mmHg/sec
same,MPAP (mean pulmonary artery pressure),[2]; [5],14 ± 0.4 mmHg
same,MVO2 (myocardial oxygen consumption),[2]; [5],196 ± 18 μmols/min
same,PAWP (mean pulmonary artery wedge pressure),[2]; [5],9.0 ± 0.3 mmHg
same,PSAP,[2]; [5],87 ± 2 mmHg
same,RAP (mean right atrial pressure),[2]; [5],5.0 ± 0.4 mmHg
same,SV,[2]; [5],22 ± 0.9^++ mL
same,SVR (systemic vascular resistance),[2]; [5],3958 ± 182^++ dynes-sec-cm^−5
same,CO,[2]; [6],1.37 ± 0.04 L/min
same,HR,[2]; [6],75 ± 1.1 beats/min
same,LV+dP/dt,[2]; [6],1842 ± 127 mmHg/sec
same,LVEDP,[2]; [6],14 ± 1.1 mmHg
same,LVEDV,[2]; [6],66 ± 1.5 mL
same,LVEF,[2]; [6],28 ± 0.6%
same,LVESV,[2]; [6],48 ± 1.2 mL
same,LV−dP/dt,[2]; [6],1448 ± 155 mmHg/sec
same,MPAP,[2]; [6],15 ± 0.7 mmHg
same,PAWP,[2]; [6],10.1 ± 0.6 mmHg
same,PSAP,[2]; [6],97 ± 3.3 mmHg
same,SV,[2]; [6],18 ± 0.5 mL
same,SVR,[2]; [6],4757 ± 287 dynes-sec-cm^−5
same,CO,[2]; [7],1.50 ± 0.04 L/min
same,HR,[2]; [7],77 ± 1.0 beats/min
same,LV+dP/dt,[2]; [7],1691 ± 96 mmHg/sec
same,LVEDP,[2]; [7],13 ± 1.4 mmHg
same,LVEDV,[2]; [7],65 ± 1.1 mL
same,LVEF,[2]; [7],30 ± 0.9%
same,LVESV,[2]; [7],45 ± 1.2 mL
same,LV−dP/dt,[2]; [7],1249 ± 120 mmHg/sec
same,MPAP,[2]; [7],15 ± 0.8 mmHg
same,PAWP,[2]; [7],9.6 ± 0.7 mmHg
same,PSAP,[2]; [7],93 ± 3.6 mmHg
same,SV,[2]; [7],19 ± 0.5 mL
same,SVR,[2]; [7],4134 ± 195 dynes-sec-cm^−5
same,CO,[2]; [8],"1.68 ± 0.06^++,a,c L/min"
same,HR,[2]; [8],79 ± 2.0 beats/min
same,LV+dP/dt,[2]; [8],1667 ± 88 mmHg/sec
same,LVEDP,[2]; [8],12 + 1.4 mmHg
same,LVEDV,[2]; [8],63 ± 1.3 mL
same,LVEF,[2]; [8],"34 ± 1.4^+++,b,e %"
same,LVESV,[2]; [8],"42 ± 1.4^++,a mL"
same,LV−dP/dt,[2]; [8],1166 ± 82 mmHg/sec
same,MPAP,[2]; [8],15 ± 0.8 mmHg
same,PAWP,[2]; [8],9.0 ± 0.6 mmHg
same,PSAP,[2]; [8],92 ± 4.1 mmHg
same,SV,[2]; [8],"21 ± 0.8^+++,a,c mL"
same,SVR,[2]; [8],"3638 ± 191^+,d dynes-sec-cm^−5"
same,CO,[2]; [9],"1.83 ± 0.09^+++,b,e L/min"
same,HR,[2]; [9],81 ± 3.6 beats/min
same,LV+dP/dt,[2]; [9],1640 ± 88 mmHg/sec
same,LVEDP,[2]; [9],12 ± 1.2 mmHg
same,LVEDV,[2]; [9],62 ± 1.3 mL
same,LVEF,[2]; [9],"37 ± 1.2^+++,b,e %"
same,LVESV,[2]; [9],"39 ± 1.4^+++,b,e mL"
same,LV−dP/dt,[2]; [9],1124 ± 92 mmHg/sec
same,MPAP,[2]; [9],15 ± 0.9 mmHg
same,PAWP,[2]; [9],9.4 ± 0.8 mmHg
same,PSAP,[2]; [9],92 ± 4.3 mmHg
same,SV,[2]; [9],"23 ± 0.6^+++,a,e mL"
same,SVR,[2]; [9],"3372 ± 238^++,a,c dynes-sec-cm^−5"
same,CO,[2]; [10],1.55 ± 0.08 L/min
same,HR,[2]; [10],82 ± 4 beats/min
same,LV+dP/dt,[2]; [10],1618 ± 79 mmHg/sec
same,LVEDP,[2]; [10],15 ± 2 mmHg
same,LVEDV,[2]; [10],68 ± 2.1 mL
same,LVEF,[2]; [10],28 ± 0.5%
same,LVESV,[2]; [10],49 ± 1.8 mL
same,MPAP,[2]; [10],16 ± 0.8 mmHg
same,PSAP,[2]; [10],90 ± 4 mmHg
same,SV,[2]; [10],19 ± 0.4 mL
same,infusion dose with minimal effect on left ventricular systolic and diastolic function,"[2]; dogs with advanced heart failure, 60 minutes",0.43 ng/kg/min
